# Measurements as given in a melting point compilation (Tetko et al.; mined from patent text by program, amines drawn as free bases though some values may be those of a salt).
# Non-standard residues stand in square brackets, D forms with d. Residues, ends and D or L forms follow the SMILES beside them. *: point of attachment. 1Nal = N[C@@H](Cc1cccc2ccccc12)C(=O)O; Cbz = O=C(OCc1ccccc1)*
row,melting point,Structure (SMILES)
1,58 to 60 °C,Fc1ccc2c(c1)[C@H]1N[C@@H](CNC(c3ccccc3)(c3ccccc3)c3ccccc3)C[C@@H]1c1ccccc1C2
2,106 to 108 °C,CC(C)C[C@@H](C=O)NC(=O)[C@H](Cc1c[nH]cn1)NC(=O)[C@H](Cc1cccc2ccccc12)NC(=O)OCc1ccccc1 (Cbz-[1Nal]-His-Leu-aldehyde)
3,122 to 127 °C,C=CCN(c1ccccc1)c1cc2c(cc1N(CC=C)c1ccccc1)C(=O)NC2=O
4,180 °C,O=C(O)CCCn1c(=O)[nH]c2ccccc21
5,> 250 °C,NS(=O)(=O)c1ccc(NN=C2C(=O)Nc3cc(Oc4ccccc4)ccc32)cc1
6,201 °C,O=C(CN1CCCC1)Nc1ccc2c(c1)C(=O)c1cc(NC(=O)CN3CCCC3)ccc1C2=O
7,110 °C,CC(C)CCNC(=O)CNC(=O)C(Br)Cc1ccccc1 (centres undefined)
8,86 to 88 °C,COc1nc2cc([N+](=O)[O-])c(C)c(C(=O)N[C@@H](Cc3ccccc3)C(=O)OC(C)(C)C)c2nc1OC
9,165 to 168 °C,Cc1cc2ccncc2c(=N)c2ccccc12
10,130 °C,CCCNC(=O)C(C)Cc1ccc2cccc(Cc3ccc(C(=O)OC)cc3OC)c2c1 (centres undefined)
11,66 °C,COC(=O)Cc1sc(N=C2SC[C@@H]3Cc4ccccc4CN23)nc1C
12,240 to 242 °C,Cc1ccc2sc(S(=O)(=O)c3ccc(=O)[nH]n3)cc2c1
13,170 to 171 °C,COc1ccc(N2CCN(c3c(C)c(C)c4c(c3C)C(c3ccc5ccccc5c3)C(C)(C)O4)CC2)cc1 (centres undefined)
14,233 to 235 °C,Cc1cccc(C)c1N1CC(=O)N(c2c(C)cccc2C)CC1=O
15,142 °C,Cc1nc(C(=O)NS(=O)(=O)c2c(C)csc2C(=O)OC(C)C)no1
16,175 to 178 °C,CC(C)c1ccc(C2(CC(=O)O)CNC(=O)C2)cc1 (centres undefined)
17,186 °C,O=S(=O)(c1cccc(-c2cc(-c3nc(-c4ccc(C(F)(F)F)cc4)cc(C(F)(F)F)n3)ccn2)c1)N(CCO)CCO
18,129 to 130 °C,CC(C)Oc1ccc(CCC(=O)NS(=O)(=O)c2ccccc2)c(Oc2ncc(C(F)(F)F)cc2Cl)c1
19,107 to 109 °C,COCCCS(=O)(=O)NC(=O)CC(C)c1ccc(OCCOC)cc1Oc1ncc(C(F)(F)F)cc1Cl (centres undefined)
20,115 °C,O=C(O)CC1C=CC=CC1=NOC(=O)C(Cl)Cl (centres undefined)
21,134 to 138 °C,O=C(c1nn(-c2ccc(F)cc2F)c2c1C1CCC2C1)N1CCc2ccccc2C1 (centres undefined)

row,melting point,Structure (SMILES)
1,154 to 157 °C,O=C(Nc1ccccc1)n1cc(F)c(NCc2ccccc2F)nc1=O
2,255 to 257 °C,Cc1ccc(Cl)c2nc3cccc(C(=O)O)c3nc12
3,207 to 210 °C,C#Cc1cnc(OCCOc2ncnc(NS(=O)(=O)c3ccc(C(C)(C)C)cc3)c2-c2ccc(C)cc2)nc1
4,151 to 152 °C,COc1ccc(-n2c(-c3ccc(OCCCl)cc3)nc3c(OC)cccc3c2=O)cc1
5,49 to 50 °C,C/C=C(/COC(=O)CNC(=O)C(F)(F)F)c1ccccc1
6,270 °C,COc1cccc2c1C(N)=NS2(=O)=O
7,125 °C,CN1C(=O)C(c2ccc(OC(F)(F)F)cc2)(C23CC4CC(CC(C4)C2)C3)N=C1N (centres undefined)
8,94 to 97 °C,Cc1nc(-n2cc(CCCc3ccccc3)nn2)sc1C(=O)NCc1ccccc1
9,65 to 70 °C,COc1ccc(CCCC2CCNCC2)cc1
10,133 to 135 °C,CCC(C)n1c(Nc2cc(C(F)(F)F)ccc2C(F)(F)F)nc(C(F)(F)F)c(Cl)c1=O (centres undefined)
11,115 to 117 °C,Clc1ccc(N2CC3CCC(C2)N3Cc2ccccc2)cc1
12,262 to 264 °C,Fc1ccccc1N1CCN(Cc2nc3ccccc3[nH]2)CC1
13,106 to 108 °C,COc1ccc2c(c1)N(C(C)=O)c1cccc(SC)c1S2
14,335 °C,O=c1[nH]c2nc3ccccc3n2c(=O)n1C1CCCCC1
15,181 to 184 °C,CCCc1nc2c(N)nc3cc(-c4ccc(F)cc4CN)ccc3c2s1
16,148 to 149 °C,Cc1ccc(-n2ccc3c(Cl)nnc(Cl)c32)c(C)c1
17,155 to 157 °C,N#Cc1ccc(Cc2cccnc2)cc1
18,240 °C,CCOC(=O)c1cn(C2CC2)c2cc(-c3cc(C)nc(CO)c3)c(F)cc2c1=O
19,203 to 205 °C,CS(=O)(=O)c1ccc(-n2cccc2-c2ccc(Cl)cc2)cc1
20,58 to 60 °C,COC(CBr)(CCCC(=O)NN)OC
21,207 to 208 °C,O=C(N[C@H](Cc1ccc(F)cc1)[C@@H](O)c1ccc(C(F)(F)F)cc1)c1cccc2ccccc12 (racemic)

row,melting point,Structure (SMILES)
1,104 to 107 °C,Cc1cn(CC(Br)C(=O)N(C)C)nc1-c1ccccc1 (centres undefined)
2,81.3 to 81.5 °C,COc1ccc(Cn2nc(-c3ccc(S(C)=O)cc3)c(-c3ccc(F)cc3)cc2=O)cc1 (centres undefined)
3,86 to 87 °C,COc1ccccc1OCC1SCCN1C(=O)CS (centres undefined)
4,125 to 127 °C,Nc1ncc(CCO)s1
5,211 to 213 °C,Nc1nc(Cl)c(-c2ccc(Cl)cc2Cl)c(Cl)n1
6,75 to 76 °C,Cc1cccc(N2CCN(C(=O)CCCCCCC(=O)NO)CC2C)c1 (centres undefined)
7,179 to 180 °C,NS(=O)(=O)c1ncc2ccccn12
8,117 to 118 °C,O=C(Nc1ccc([N+](=O)[O-])cc1)c1ccc(F)cc1
9,56 to 58 °C,CC(Oc1ccc(OCc2ccccc2)cc1)C(=O)N(C)C#N (centres undefined)
10,75 to 77 °C,"CN(C)CCC1CCc2cc(OCc3cc4ccccc4o3)ccc2C1 (single isomer, unassigned; (+))"
11,125 to 127 °C,CCNC(=O)/C=C1\CCc2ccc(F)cc21
12,139 to 141 °C,CCC(c1ccc(Br)cc1)N(O)C(N)=O (centres undefined)
13,238 °C,Oc1ccc(Sc2nnc3cc(Cl)ccc3n2)cc1
14,160 to 161 °C,COc1cc(C=NC2CCCCC2)c([N+](=O)[O-])cc1OC
15,155 to 157 °C,CCN(CC)CCCCC1CCCCN1CCNC(=O)N1c2ccccc2C(=O)Nc2cccnc21 (centres undefined)
16,69 to 73 °C,CC(C)(C)C(=O)Nc1ccc(C(F)(F)F)cc1C=O
17,172 to 174 °C,COc1ccc(S(=O)(=O)C2(CCCC#Cc3ccc(Cl)cc3)SC(=O)NC2=O)cc1 (centres undefined)
18,129 to 130 °C,ClCc1ccc(OCc2coc(-c3ccccc3)n2)cc1
19,88 to 91 °C,COc1cc(N)c(C(=O)O)c(OC)c1OC
20,95 to 96 °C,C=CCC(CCC(CC=C)(C(=O)c1ccc(NCCO)cc1)N(C)C)(C(=O)c1ccc(NCCO)cc1)N(C)C (centres undefined)
21,126 °C,COC(=O)c1cc(S(C)(=O)=O)c(F)cc1Br

row,melting point,Structure (SMILES)
1,65 °C,BrCCON=C1c2ccccc2-n2cccc21
2,142 °C,O=CN[C@H]1CC[C@H](CCN2CCC(c3cccc4c3CCO4)CC2)CC1
3,203 to 204 °C,O=C(CN1CCN(C(c2ccccc2)c2ccccc2)CC1)Nc1ccc2ncnn2n1
4,131 to 132 °C,COc1cc([C@@H](O)[C@@H](C)N2CCC(O)(c3ccccc3)CC2)ccc1OCc1ccccc1 (relative stereo)
5,85 to 87 °C,CCOC(=O)C(N=CC1C=C(Cl)C=CC1(OC(C)=O)c1ccccc1)C(=O)OCC (centres undefined)
6,143 to 146 °C,CCCCCCCCCCCCC(=O)Nc1ccn(C2OC(CO)C(O)C2O)c(=O)n1 (centres undefined)
7,178 to 179 °C,COC(=O)NC1CCc2sc(Cl)c(C(=O)CCC(=O)O)c2C1 (centres undefined)
8,> 300 °C,O=c1[nH]nc(-c2nc3ccccc3o2)[nH]1
9,225 to 227 °C,COc1ccnc(CS(=O)c2nc3cc(C(F)(F)F)ccc3[nH]2)c1C (centres undefined)
10,293 to 295 °C,COc1ccc2c(C(=O)O)cc3cc4c(cc3c2c1)OCO4
11,210 to 212 °C,Cn1nc2c(N)nc3ccccc3c2c1CCc1ccccc1
12,57 °C,CCOC(=O)C1=C(N2CCCC2)N=C(C)C(C(=O)OCC)C1c1ccccc1 (centres undefined)
13,113 to 114 °C,CON=C(c1ccccc1COc1ccc(Cl)cc1)c1ncnn1C
14,123 to 124 °C,O=[N+]([O-])c1ccc(-n2ccnn2)c(F)c1
15,124 to 125 °C,CC(C)(C)OC(=O)N[C@H]1CCN(C(=O)OCc2ccccc2)C1
16,173 to 175 °C,Cc1onc(C(=O)c2ccc(Cl)cc2)c1[N+](=O)[O-]
17,119 to 120 °C,CC(=O)Oc1cc(C(C)(C)C)ccc1C1(OC(C)=O)C(=O)c2ccccc2C1=O
18,250 to 251 °C,CC(=O)Nc1c(C(=O)c2cccc(S(N)(=O)=O)c2)[nH]c2cc(Cl)ccc12

row,Structure (SMILES),melting point
1,CN1CCN(c2cc([N+](=O)[O-])ccc2Br)CC1,100 to 103 °C
2,Cc1nsc(OCC(Cl)(Cl)Cl)c1S(N)(=O)=O,140 to 142 °C
3,N#Cc1ncn2c1[C@@H]1CCN1C(=O)c1ccccc1-2,232 to 234 °C
4,Cc1ccc(CC(C)NCC(O)c2ccccc2)cc1 (centres undefined),74 to 94 °C
5,CN1Cc2c(C#N)ncn2-c2ccccc2C1=O,184 to 186 °C
6,CC12CCC3=C4CCC(=O)C=C4CCC3C1C=CC2=O (centres undefined),182 to 183 °C
7,NNC1=Nc2ccc(Br)cc2C(c2ccccn2)=NC1,218 to 228 °C
8,COc1ccc(C=O)cc1CCl,55 to 57 °C
